Columns and labels:
Type in all cases: in vivo
[1] = system: velvetleaf (Abutilon theophrasti); experiment: Test G Post-Emergence Protocol; details: Abutilon theophrasti, post-emergence, 312 h, read-out: Velvetleaf damage rating; for pest or weed control at 15.625 g/ha: 15.625 g ai/ha, evaluated after 13 days (100=total damage to plant; 0=no damage to plant); for pest or weed control at 62.5 g/ha: 62.5 g ai/ha; for pest or weed control at 62.5 g/ha / pest or weed control at 250 g/ha: evaluated after 13 days, 100=total damage to plant, 0=no damage to plant; for pest or weed control at 250 g/ha: 250 g ai/ha
Summary of the method: (§1)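 A glasshouse post-emergence test: 8-day-old plants sprayed at 15.625, 62.5 or 250 g/ha, then grown at 24/16 °C day/night with 14 h light and 65% humidity. Damage rated 13 days later, 0–100.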

corn (Zea mays) [2] = experiment: Test G Post-Emergence Protocol; details: Zea mays, post-emergence, 312 h, read-out: Corn damage rating; for plant injury at 15.625 g/ha: 15.625 g ai/ha, evaluated after 13 days (100=total damage to plant; 0=no damage to plant); for plant injury at 62.5 g/ha: 62.5 g ai/ha; for plant injury at 62.5 g/ha / plant injury at 250 g/ha: evaluated after 13 days, 100=total damage to plant, 0=no damage to plant; for plant injury at 250 g/ha: 250 g ai/ha
Summary of the method: as §1

[3] = system: redroot pigweed (Amaranthus retroflexus); experiment: Test G Post-Emergence Protocol; details: Amaranthus retroflexus, post-emergence, 312 h, read-out: Pigweed, Redroot damage rating; for pest or weed control at 15.625 g/ha: 15.625 g ai/ha, evaluated after 13 days (100=total damage to plant; 0=no damage to plant); for pest or weed control at 62.5 g/ha: 62.5 g ai/ha; for pest or weed control at 62.5 g/ha / pest or weed control at 250 g/ha: evaluated after 13 days, 100=total damage to plant, 0=no damage to plant; for pest or weed control at 250 g/ha: 250 g ai/ha
Summary of the method: as §1

[4] = system: giant foxtail (Setaria faberi); experiment: Test G Post-Emergence Protocol; details: Setaria faberi, post-emergence, 312 h, read-out: Foxtail, Giant damage rating; for pest or weed control at 15.625 g/ha: 15.625 g ai/ha, evaluated after 13 days (100=total damage to plant; 0=no damage to plant); for pest or weed control at 62.5 g/ha: 62.5 g ai/ha; for pest or weed control at 62.5 g/ha / pest or weed control at 250 g/ha: evaluated after 13 days, 100=total damage to plant, 0=no damage to plant; for pest or weed control at 250 g/ha: 250 g ai/ha
Summary of the method: as §1

[5] = system: barnyardgrass (Echinochloa crus-galli); experiment: Test G Post-Emergence Protocol; details: Echinochloa crus-galli, post-emergence, 312 h, read-out: Barnyardgrass damage rating; for pest or weed control at 15.625 g/ha: 15.625 g ai/ha, evaluated after 13 days (100=total damage to plant; 0=no damage to plant); for pest or weed control at 62.5 g/ha: 62.5 g ai/ha; for pest or weed control at 62.5 g/ha / pest or weed control at 250 g/ha: evaluated after 13 days, 100=total damage to plant, 0=no damage to plant; for pest or weed control at 250 g/ha: 250 g ai/ha
Summary of the method: as §1

[6] = system: ivy-leaved morning glory (Ipomoea hederacea); experiment: Test G Post-Emergence Protocol; details: Ipomoea, post-emergence, 312 h, read-out: Morningglory, Ivy-leaved damage rating; for pest or weed control at 15.625 g/ha: 15.625 g ai/ha, evaluated after 13 days (100=total damage to plant; 0=no damage to plant); for pest or weed control at 62.5 g/ha: 62.5 g ai/ha; for pest or weed control at 62.5 g/ha / pest or weed control at 250 g/ha: evaluated after 13 days, 100=total damage to plant, 0=no damage to plant; for pest or weed control at 250 g/ha: 250 g ai/ha
Summary of the method: as §1

[7] = system: velvetleaf (Abutilon theophrasti); experiment: Test G Pre-Emergence Protocol; details: Abutilon theophrasti, pre-emergence, 312 h, evaluated after 13 days; for pest or weed control at 15.625 g/ha: 15.625 g ai/ha; for pest or weed control at 15.625 g/ha / pest or weed control at 250 g/ha: read-out: Velvetleaf damage rating (100=total damage to plant; 0=no damage to plant); for pest or weed control at 62.5 g/ha: 62.5 g ai/ha, 100=total damage to plant, 0=no damage to plant, read-out: Velvetleaf damage rating; for pest or weed control at 250 g/ha: 250 g ai/ha
Summary of the method: (§2)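 Glasshouse pre-emergence test: soil-sown seeds, sprayed after 1 d at 15.625, 62.5 or 250 g/ha. Conditions 24/16° C day/night, 14 h light, 65% humidity, watering twice daily. Rating 13 d post-spray (100 = total damage).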

corn (Zea mays) [8] = experiment: Test G Pre-Emergence Protocol; details: Zea mays, pre-emergence, 312 h, evaluated after 13 days; for plant injury at 15.625 g/ha: 15.625 g ai/ha; for plant injury at 15.625 g/ha / plant injury at 250 g/ha: read-out: Corn damage rating (100=total damage to plant; 0=no damage to plant); for plant injury at 62.5 g/ha: 62.5 g ai/ha, 100=total damage to plant, 0=no damage to plant, read-out: Corn damage rating; for plant injury at 250 g/ha: 250 g ai/ha
Summary of the method: as §2

[9] = system: redroot pigweed (Amaranthus retroflexus); experiment: Test G Pre-Emergence Protocol; details: Amaranthus retroflexus, pre-emergence, 312 h, evaluated after 13 days; for pest or weed control at 15.625 g/ha: 15.625 g ai/ha; for pest or weed control at 15.625 g/ha / pest or weed control at 250 g/ha: read-out: Pigweed, Redroot damage rating (100=total damage to plant; 0=no damage to plant); for pest or weed control at 62.5 g/ha: 62.5 g ai/ha, 100=total damage to plant, 0=no damage to plant, read-out: Pigweed, Redroot damage rating; for pest or weed control at 250 g/ha: 250 g ai/ha
Summary of the method: as §2

[10] = system: giant foxtail (Setaria faberi); experiment: Test G Pre-Emergence Protocol; details: Setaria faberi, pre-emergence, 312 h, evaluated after 13 days; for pest or weed control at 15.625 g/ha: 15.625 g ai/ha; for pest or weed control at 15.625 g/ha / pest or weed control at 250 g/ha: read-out: Foxtail, Giant damage rating (100=total damage to plant; 0=no damage to plant); for pest or weed control at 62.5 g/ha: 62.5 g ai/ha, 100=total damage to plant, 0=no damage to plant, read-out: Foxtail, Giant damage rating; for pest or weed control at 250 g/ha: 250 g ai/ha
Summary of the method: as §2

[11] = system: barnyardgrass (Echinochloa crus-galli); experiment: Test G Pre-Emergence Protocol; details: Echinochloa crus-galli, pre-emergence, 312 h, evaluated after 13 days; for pest or weed control at 15.625 g/ha: 15.625 g ai/ha; for pest or weed control at 15.625 g/ha / pest or weed control at 250 g/ha: read-out: Barnyardgrass damage rating (100=total damage to plant; 0=no damage to plant); for pest or weed control at 62.5 g/ha: 62.5 g ai/ha, 100=total damage to plant, 0=no damage to plant, read-out: Barnyardgrass damage rating; for pest or weed control at 250 g/ha: 250 g ai/ha
Summary of the method: as §2

[12] = system: ivy-leaved morning glory (Ipomoea hederacea); experiment: Test G Pre-Emergence Protocol; details: Ipomoea, pre-emergence, 312 h, evaluated after 13 days; for pest or weed control at 15.625 g/ha: 15.625 g ai/ha; for pest or weed control at 15.625 g/ha / pest or weed control at 250 g/ha: read-out: Morningglory, Ivy-leaved damage rating (100=total damage to plant; 0=no damage to plant); for pest or weed control at 62.5 g/ha: 62.5 g ai/ha, 100=total damage to plant, 0=no damage to plant, read-out: Morningglory, Ivy-leaved damage rating; for pest or weed control at 250 g/ha: 250 g ai/ha
Summary of the method: as §2

| Structure (SMILES) | pest or weed control at 15.625 g/ha [1] [%] | pest or weed control at 62.5 g/ha [1] [%] | pest or weed control at 250 g/ha [1] [%] | plant injury at 15.625 g/ha (corn (Zea mays) [2]) [%] | plant injury at 62.5 g/ha (corn (Zea mays) [2]) [%] | plant injury at 250 g/ha (corn (Zea mays) [2]) [%] | pest or weed control at 15.625 g/ha [3] [%] | pest or weed control at 62.5 g/ha [3] [%] | pest or weed control at 250 g/ha [3] [%] | pest or weed control at 15.625 g/ha [4] [%] | pest or weed control at 62.5 g/ha [4] [%] | pest or weed control at 250 g/ha [4] [%] | pest or weed control at 15.625 g/ha [5] [%] | pest or weed control at 62.5 g/ha [5] [%] | pest or weed control at 250 g/ha [5] [%] | pest or weed control at 15.625 g/ha [6] [%] | pest or weed control at 62.5 g/ha [6] [%] | pest or weed control at 250 g/ha [6] [%] | pest or weed control at 15.625 g/ha [7] [%] | pest or weed control at 62.5 g/ha [7] [%] | also measured |
| --- | --- | --- | --- | --- | --- | --- | --- | --- | --- | --- | --- | --- | --- | --- | --- | --- | --- | --- | --- | --- | --- |
| CCS(=O)(=O)c1ccccc1NC(=O)[C@H]1C(=O)N(C)C[C@@H]1c1ccc(C(F)(F)F)cc1 (racemic) [Compound 1664] | 0 | 10 | 20 | 0 | 40 | 80 | 20 | 80 | 80 | 60 | 80 | 80 | 0 | 60 | 70 | 0 | 20 | 30 | 0 | 0 | pest or weed control at 250 g/ha [7]: 20%; plant injury at 15.625 g/ha (corn (Zea mays) [8]): 0%; plant injury at 62.5 g/ha (corn (Zea mays) [8]): 0%; plant injury at 250 g/ha (corn (Zea mays) [8]): 80%; pest or weed control at 15.625 g/ha [9]: 0%; pest or weed control at 62.5 g/ha [9]: 20%; pest or weed control at 250 g/ha [9]: 100%; pest or weed control at 15.625 g/ha [10]: 30%; pest or weed control at 62.5 g/ha [10]: 70%; pest or weed control at 250 g/ha [10]: 90%; pest or weed control at 15.625 g/ha [11]: 0%; pest or weed control at 62.5 g/ha [11]: 40%; pest or weed control at 250 g/ha [11]: 80%; pest or weed control at 15.625 g/ha [12]: 0%; pest or weed control at 62.5 g/ha [12]: 0%; pest or weed control at 250 g/ha [12]: 0% |
| C=Cc1cc(Oc2ccccc2)cc([C@@H]2CN(C)C(=O)[C@H]2C(=O)Nc2cccc(F)c2F)c1 (racemic) [Compound 1826] | 0 | 0 | 10 | 0 | 20 | 50 | 0 | 0 | 50 | 0 | 40 | 80 | 0 | 10 | 70 | 0 | 20 | 10 | 0 | 0 | pest or weed control at 250 g/ha [7]: 0%; plant injury at 15.625 g/ha (corn (Zea mays) [8]): 10%; plant injury at 62.5 g/ha (corn (Zea mays) [8]): 10%; plant injury at 250 g/ha (corn (Zea mays) [8]): 20%; pest or weed control at 15.625 g/ha [9]: 0%; pest or weed control at 62.5 g/ha [9]: 0%; pest or weed control at 250 g/ha [9]: 20%; pest or weed control at 15.625 g/ha [10]: 20%; pest or weed control at 62.5 g/ha [10]: 80%; pest or weed control at 250 g/ha [10]: 90%; pest or weed control at 15.625 g/ha [11]: 0%; pest or weed control at 62.5 g/ha [11]: 70%; pest or weed control at 250 g/ha [11]: 80%; pest or weed control at 15.625 g/ha [12]: 0%; pest or weed control at 62.5 g/ha [12]: 0%; pest or weed control at 250 g/ha [12]: 0% |

— patent publication US12077503B2, “Substituted cyclic amides and their use as herbicides” (FMC CORPORATION, priority 2015, dated 2024)
